Results as given in patent US6926890B2, “Non-invasive approach for assessing tumors in living animals” (priority 2000, dated 2005).
Entries after “also recorded” stand apart in the source; their conditions may differ.

B1: β-hCG: β-subunit of human chorionic gonadotropin, glycoprotein hormone secreted by recombinant tumor cells as urinary marker (protein)
chain: SKEPLRPRCRPINATLAVEKEGCPVCITVNTTICAGYCPTMTRVLQGVLPALPQVVCNYRDVRFESIRLPGCPRGVNPVVSYAVALSCQCALCRRSTTDCGGPKDHPLTCDDPRFQDSSSSKAPPPSLPSPSRLPGPSDTPILPQ

Experiments:
[1] = test system: EMT6-CG-TK cells; experiment: Ganciclovir treatment of intraperitoneal EMT6-CG-TK tumors monitored by urinary β-hCG; format: in vivo, Balb/c mice
Description: (§1) FIG. 5C. Urinary β-hCG levels before and after ganciclovir (GCV) treatment of intraperitoneal tumors. Five Balb/c mice were injected intraperitoneally with 4×10^6 EMT6-CG-TK cells (black symbols). They received a four-day course of ganciclovir (150 mg/kg/day), administered intraperitoneally beginning three days after tumor cell injection.
(§2) The β-hCG MAIAclone kit (Polymedco Inc. Cortlandt Manor, N.Y.), based on an immunoradiometric system, was used for quantitative determination of urinary β-hCG. Fifty μl of mouse urine samples diluted to achieve a final β-hCG concentration of 2.5-20 mIU/ml, standards, positive and negative controls were mixed with 0.5 ml of ^125I anti-hCG antibodies in 12×75 mm glass tubes (VWR Scientific, Boston, Mass.) and incubated at 37° C. for 15 min. […] The radioactivity of each sample was analyzed in a Gamma 5500 counter (Beckman, Fullerton, Calif.). […] Urinary β-hCG levels were normalized to urinary creatinine measured with a Roche Hitachi 917 analyzer (Roche Diagnostics, Indianapolis, Ind.). The ratio of β-hCG to creatinine was expressed as mIU β-hCG/mg creatinine.
(§3) Next the recombinant tumor system of the present invention was applied to a chemotherapeutic model. […] The difference between the kinetics of tumor cell death mediated by surgery and chemotherapy is readily evident through comparison of FIGS. 5A and 5C.

[2] = test system: EMT6-CG tumors; experiment: Ganciclovir treatment of control EMT6-CG tumors monitored by urinary β-hCG; format: in vivo, Balb/c mice; conditions: control EMT6-CG tumors without thymidine kinase
Description: as §1, §2, §3

[3] = Clearance of urinary β-hCG after surgical removal of subcutaneous SW480-CG tumors; format: in vivo, athymic (nu/nu) mice
Description: Female mice, 10-12 weeks old, were obtained from Harlan (Indianapolis, Ind.). For tail vein injections, 10^5 B 16-CG cells in 0.1 ml PBS were injected into C57BL/6 mice. For intraperitoneal administration, 2×10^6 EMT6-CG cells in 0.3 ml PBS were injected intraperitoneally into Balb/c mice. For intrasplenic injection, 10^6 B16-CG cells in 0.1 ml PBS were injected into the spleens of athymic (nu/nu) mice. For subcutaneous injection, 3×10^6 B16-CG cells or 8×10^6 SW480-CG cells in 0.1 ml PBS were injected into subcutaneous tissues adjacent to the lower spine of athymic (nu/nu) mice.
as §2, with “creatinine. […]” for “creatinine.”

[4] = Comparison of β-hCG concentrations in urine and serum of mice with subcutaneous B16-CG tumors; format: in vivo; conditions: serum 10-240 mIU/ml, six mice
Description: The β-hCG MAIAclone kit (Polymedco Inc. Cortlandt Manor, N.Y.), based on an immunoradiometric system, was used for quantitative determination of urinary β-hCG. Fifty μl of mouse urine samples diluted to achieve a final β-hCG concentration of 2.5-20 mIU/ml, standards, positive and negative controls were mixed with 0.5 ml of ^125I anti-hCG antibodies in 12×75 mm glass tubes (VWR Scientific, Boston, Mass.) and incubated at 37° C. for 15 min. Two hundred μl of the magnetic separation matrix provided with the kit was then added to each tube and incubated for 5 min at room temperature. The magnetic reagent with bound β-hCG was separated using a magnetic concentrator (Polymedco Inc.). The matrix was washed in 0.5 ml of the MAIAclone washing buffer provided with the kit and reseparated magnetically. The radioactivity of each sample was analyzed in a Gamma 5500 counter (Beckman, Fullerton, Calif.). The minimal detectable level of β-hCG was 2.5 mIU/ml. Urinary β-hCG levels were normalized to urinary creatinine measured with a Roche Hitachi 917 analyzer (Roche Diagnostics, Indianapolis, Ind.). The ratio of β-hCG to creatinine was expressed as mIU β-hCG/mg creatinine.
To determine whether β-hCG would be excreted in the urine of mice, as it is in pregnant women, the concentrations of β-hCG in urine and serum of mice with subcutaneous B16-CG tumors were compared. […]

Row | Molecule | Urinary β-hCG levels after ganciclovir treatment ([1]; ganciclovir 150 mg/kg/day intraperitoneally, four-day course beginning three days after tumor cell injection) | Necropsy finding after ganciclovir treatment ([1]; necropsy after β-hCG declined to background) | Tumor response to ganciclovir (urinary β-hCG) [2] | half-life of urinary β-hCG ([3]; after surgical removal of SW480-CG tumors, eight animals) [h] | Urinary β-hCG levels after tumor removal ([3]; subcutaneous SW480-CG tumors removed 18 days after implantation, within a day or two of removal) | urine concentration relative to serum concentration of β-hCG [4]
1 | Nc1nc(O)c2ncn(COC(CO)CO)c2n1 [ganciclovir] | began to decline one day after the start of ganciclovir treatment; also recorded: declined to background levels over the next five days | apparently tumor free, without ascites or peritoneal implants | did not respond; also recorded: continued to grow |  |  | 
2 | B1 |  |  |  | 11 ± 2.3 | rapidly dropped to undetectable levels | 3.8±0.31 times the serum concentration
